Reference: patent US8828982B2, “Pyrimidine derivatives for the prevention of HIV infection” (Janssen Pharmaceutica N.V., priority 2003, dated 2014)

Experiments:
Type in all cases: cell-based
[1] = tested on: MO-DC/CD4(+) T cell co-cultures (MO-DC stimulators, allogenic CD4(+) T cells responders); test: Immune suppressive activity in mixed leucocyte culture (MLC), standard assay; conditions: concentration inhibiting 50% of [methyl-3H]-Thymidine incorporation, 5 days of culture, compound present throughout, read-out: ISC50 (nM) (Test B, standard assay))
Experimental: (§1) The compounds of formula (I) were tested for their immune-suppressive activity (defined as ISC50 value) in a classical MLC in which monocyte-derived dendritic cells (MO-DC) were used as stimulators and allogenic CD4(+) T cells as responders. A dilution series of test compound was added to the MO-DC/CD4(+) T cell co-cultures. After 5 days of culture, 20 μl of [methyl-3H]-Thymidine was added to each well and cultures were harvested after 7 hours. Analysis was done on a Topcount scintillation counter. The immune suppressive concentration (ISC50) is defined as the test compound concentration inhibiting 50% of normal immune proliferation (test compound concentration inhibiting 50% of [methyl-3H]-Thymidine incorporation). (standard MLC assay)

[2] = tested on: monotropic HIV strain Ba-L; test: In vitro model c) (standard infection experiment), MO-DC/CD4(+) T cell co-cultures, ELISA for HIV antigens after 14 days; conditions: concentration suppressing 50% of viral replication at end of primary culture (14 days), test compound present throughout, MOI 10^-3
Experimental: Monocyte-derived dendritic cells (MO-DC) were infected for 2 hours with the monotropic HIV strain Ba-L at a multiplicity of infection (MOI) of 10^−3. After infection, cells were washed 6 times and resuspended in 10% BCS at 400.000 cells/ml. Autologous CD4(+) T cells were purified out of the lymphocyte fraction of the same elutration as the MO-DC and used at a concentration of 2×10^6 cells/ml ((ratio MO-DC/CD4(+) T: 1/5).
A serial dilution of a compound of formula (I) (test compound) was added to the MO-DC/CD4(+) T cell co-cultures. Each experiment was done in 96-well plates, in which each cup contained 50 μl of MO-DC, 50 μl of CD4(+) T cells and 100 μl of test compound. Half of the culture medium, with test compound, was refreshed twice weekly, during 14 days. Supernatants were analysed by ELISA after 14 days of culture for the presence of HIV antigens. To determine antiviral activity, the test compound concentration able to suppress 50% of the viral replication at the end of the primary cultures (EC50) was measured.

[3] = tested on: MO-DC/CD4(+) T cell co-cultures (MO-DC stimulators, allogenic CD4(+) T cells responders); test: Immune suppressive activity in mixed leucocyte culture (MLC), 24 hour assay; conditions: test compound present only during first 24 hours of the 5-day culture; read-out: ISC50 (nM) (Test B, 24 hour assay))
Experimental: The compounds of formula (I) were tested for their immune-suppressive activity (defined as ISC50 value) in a classical MLC in which monocyte-derived dendritic cells (MO-DC) were used as stimulators and allogenic CD4(+) T cells as responders.
as §1, with “A” for “The compounds of formula (I) were tested for their immune-suppressive activity (defined as ISC50 value) in a classical MLC in which monocyte-derived dendritic cells (MO-DC) were used as stimulators and allogenic CD4(+) T cells as responders. A”
For the 24 hour assay, the test compound was only present during the first 24 hours of the 5-day culture period. After 24 hours, the cultures were washed (three times) and culture medium without compound was added. The experimental set-up was from then on similar to the standard MLC assay described above.

HIV = HIV replication inhibition test of "C. Pharmacological example" of WO 2003/016306; conditions: test described in WO 2003/016306
Text: Due to their antiretroviral properties, particularly their anti-HIV properties, especially their anti-HIV-1-activity, the compounds of formula (I), their N-oxides, pharmaceutically acceptable addition salts, quaternary amines and stereochemically isomeric forms thereof, are useful in the treatment of individuals infected by HIV. The HIV replication inhibiting effect of the compounds of formula (I) is described in WO 2003/016306. Compound 255 has a pIC50 value of 9.00 when tested in the test described under the heading “C. Pharmacological example” of WO 2003/016306.

HIV strain Ba-L = test: In vitro model b) (24 hour infection experiment), MO-DC co-cultured with autologous T4 cells
Experimental: Monocyte-derived dendritic cells (MO-DC) were co-cultured with autologous T4 cells and infected with HIV strain Ba-L at a multiplicity of infection (MOI) of 10^−3. A serial dilution of test compound was added at the time of infection. After 24 hours, 96-well plates were washed 3 times (test compound and free virus washed away) and medium (without test compound) was added. Half of the medium was refreshed twice a week. Culture supernatants were harvested after 7 and 14 days of culture. After 14 days, cultures were washed 3 times and PHA/IL-2 stimulated PBMC were added for a secondary culture to check for viral rescue. During secondary culture, half of the medium was refreshed twice weekly (IL-2 medium, without test compound). Supernatants were harvested after 1 and 2 weeks of secondary culture. After 2 weeks of secondary culture, cells were also harvested for PCR analysis. Supernatants were analysed in ELISA for the presence of HIV […] during primary and secondary culture.

| IC50 [1] | EC50 [2] | IC50 [3] | pIC50 (HIV) | EC50 (HIV strain Ba-L; test compound added at time of infection and washed away after 24 hours, MOI 10^-3) | IC50 ([1]; Leucocyte, 120 h) | EC50 ([2]; Human immunodeficiency virus 1, BAL, T-cell, 336 h) | Structure (SMILES) | cups tested positive in ELISA after 7 days of primary culture (HIV strain Ba-L; concentrations ranging from 10,000 to 10 nM, 6 cups) |
| --- | --- | --- | --- | --- | --- | --- | --- | --- |
| 20200 nM | 0.05 nM | 24600 nM | 9.00 | 2 nM | – | – | Cc1cc(/C=C/C#N)cc(C)c1Oc1ccnc(Nc2ccc(C#N)cc2)n1 [Compound 255, 4-[[4-[4-(2-cyanoethenyl)-2,6-dimethylphenoxy]-2-pyrimidinyl]amino]benzonitrile (E)] | none out of 6 |
| – | – | – | – | – | 1140 nM | 5.5 nM | Cc1cc(/C=C/c2ccncc2)cc(C)c1Nc1ccnc(Nc2ccc(C#N)cc2)n1 [Compound 162] | – |
